The target of data set [1] is T1, trypsin from bovine pancreas (Bos taurus, UniProt P00760).
T1 construct: from tissue; host or cells: bovine pancreas
T1 sequence (P00760 24-246): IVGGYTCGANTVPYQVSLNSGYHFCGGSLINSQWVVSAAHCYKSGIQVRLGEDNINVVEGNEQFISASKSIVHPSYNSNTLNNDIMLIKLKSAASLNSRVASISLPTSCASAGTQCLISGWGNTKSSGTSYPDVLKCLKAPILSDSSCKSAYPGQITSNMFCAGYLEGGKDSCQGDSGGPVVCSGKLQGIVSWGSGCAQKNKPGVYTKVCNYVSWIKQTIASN
Nature of the data set: Determination of the specificity of the inhibitors: Ki of trypsin, substrate Chromozyme TRY. Conditions: for Ki: 0.5 nM bovine pancreas trypsin, pH 7.8, 37° C., 10 minute preincubation; for Specificity Try/Thr: ratio Ki trypsin / Ki thrombin. Format: biochemical. On the procedure:
The specificity of the inhibitors towards thrombin and trypsin was determined. The Ki of trypsin was determined in an analogous manner to the determination of the Ki of thrombin. The reaction mixture was composed as follows--buffer: 200 mM triethanolamine, 20 mM CaCl2, pH 7.8; 37° C.; enzyme: 0.5 nM trypsin from bovine pancreas; substrate: 500 μM carbobenzoxy-L-valyl-glycyl-L-arginine-4-nitranilide (Chromozyme TRY, from Boehringer Mannheim). The enzymatic reaction was started after a 10 minute preincubation by addition of the substrate.

The test system of another data set is CD rats. Nature of the data set: Determination of the acute toxicity. It counts as in vivo, rat. Conditions: i.v., survival on day 1, Litchfield & Wilcoxon method. On the procedure: To determine the acute toxicity, CD rats were injected i.v. on day 0 with different doses of the test substance dissolved in 0.5 mL of physiol. NaCl solution. Control groups received only 0.5 mL of physiol. NaCl solution. 2 rats were used per concentration of the test substance. The number of rats surviving on day 1 was determined and the LD5, LD50 and LD95 were calculated by the Litchfield & Wilcoxon method. […] The results are summarized in Table I. Pharmacological data and activities of some selected compounds: […]

The target of the next data set is T2, human thrombin (Homo sapiens, UniProt P00734).
T2 construct: By proteolysis the proenzyme prothrombin is converted into thrombin
The data set can be described thus: Determination of the inhibition constants (Ki) for thrombin, chromogenic substrate S-2238. It counts as biochemical. Conditions: 100 pM human thrombin, pH 7.8, 37° C., 10 minutes preincubation, tight-binding evaluation. On the procedure: The inhibition constants (Ki) of the compounds of the formula I were determined in established enzyme-kinetic procedures. […] Inhibitor and enzyme were preincubated for 10 minutes, and the reaction was started by addition of the chromogenic substrate S2238. For the evaluation of the kinetics, the mathematical algorithm for tight-binding was used, which gave Ki values and the inhibition type with the aid of non-linear regression.

Another data set concerns thrombin. As to conditions: cited from earlier work.

`COC(=O)C1OC(NC(=O)C[C@H](NS(=O)(=O)c2c(C)cc(OC)c(C)c2C)C(=O)N[C@H](Cc2ccc(C(=N)N)cc2)C(=O)N2CCCCC2)C(OC(C)=O)C(OC(C)=O)C1OC(C)=O.Cl` (stereo partly drawn) [Compound 24, 2-N-(4-Methoxy-2,3,6-trimethyl-benzenesulfonyl)-4-N-[methyl (2,3,4-tri-O-acetyl-β-D-glucopyranosyl)uronate]-L-asparaginyl-4-amidino-D-phenylalanine-piperidide hydrochloride]: in data set [1], the affinity, expressed as Ki, was 231 nM and the “Specificity Try/Thr” value turned out to be 289. Also, the “LD50 (rat)” value with CD rats was 46 mg/kg. Besides, the Ki – broadly, a measure of affinity in units of concentration, obtained from inhibition or displacement – on human thrombin came out at 0.8 nM.
The like results for `COc1cc(C)c(S(=O)(=O)N[C@@H](CC(=O)N[C@@H]2O[C@H](COC(C)=O)[C@@H](OC(C)=O)[C@H](OC(C)=O)[C@H]2OC(C)=O)C(=O)N[C@H](Cc2ccc(C(=N)N)cc2)C(=O)N2CCCCC2)c(C)c1C.Cl` [Compound 25, 2-N-(4-Methoxy-2,3,6-trimethyl-benzenesulfonyl)-4-N-(2,3,4,6-tetra-O-acetyl-β-D-glucopyranosyl)-L-asparaginyl-4-amidino-D-phenylalanine-piperidide hydrochloride] were, in that order, 283 nM, 118, 55 mg/kg and 2.4 nM.
For `COc1cc(C)c(S(=O)(=O)N[C@@H](CC(=O)N[C@@H]2O[C@H](C(=O)O)[C@@H](O)[C@H](O)[C@H]2O)C(=O)N[C@H](Cc2ccc(C(=N)N)cc2)C(=O)N2CCCCC2)c(C)c1C.Cl` [Compound 30, 2-N-(4-Methoxy-2,3,6-trimethyl-benzenesulfonyl)-4-N-[(β-D-glucopyranosyl)-uronic acid]-L-asparaginyl-4-amidino-D-phenylalanine-piperidide hydrochloride] the same measures were 349 nM, 4106, 51 mg/kg and 0.085 nM.
For the compound `COc1cc(C)c(S(=O)(=O)N[C@@H](CC(=O)N[C@@H]2O[C@H](CO)[C@@H](O)[C@H](O)[C@H]2O)C(=O)N[C@H](Cc2ccc(C(=N)N)cc2)C(=O)N2CCCCC2)c(C)c1C.Cl` [Compound 31, 2-N-(4-Methoxy-2,3,6-trimethyl-benzenesulfonyl)-4-N-[(β-D-glucopyranosyl)-L-asparaginyl-4-amidino-D-phenylalanine-piperidide hydrochloride], the Ki was found to be 501 nM in data set [1] and 0.075 nM on human thrombin.
For `COc1cc(C)c(S(=O)(=O)N[C@@H](CC(=O)N[C@@H]2O[C@H](CO)[C@@H](O)[C@H](O)[C@H]2O)C(=O)N[C@H](Cc2ccc(C(=N)N)cc2)C(=O)N2CCCCC2)c(C)c1C.Cl` [Compound 31], the “Specificity Try/Thr” value in data set [1] is 6680. Moreover, the “LD50 (rat)” value in the data set on CD rats came to 45 mg/kg.
`COc1cc(C)c(S(=O)(=O)N[C@@H](CC(=O)N[C@@H]2O[C@H](CO)[C@@H](O)[C@H](O)[C@H]2NC(C)=O)C(=O)N[C@H](Cc2ccc(C(=N)N)cc2)C(=O)N2CCCCC2)c(C)c1C.Cl` [Compound 32, 2-N-(4-Methoxy-2,3,6-trimethyl-benzenesulfonyl)-4-N-(2-acetamido-2-deoxy-β-D-glucopyranosyl)-L-asparaginyl-4-amidino-D-phenylalanine-piperidide hydrochloride]: the inhibition constant (Ki) in data set [1] turned out to be 528 nM; on human thrombin, 1.1 nM. Also, the “Specificity Try/Thr” value in data set [1] is on record as 480. In the data set with CD rats, the “LD50 (rat)” value is 53 mg/kg.
In the case of `COc1cc(C)c(S(=O)(=O)N[C@@H](CC(=O)N[C@@H]2O[C@H](CO)[C@H](O)[C@H](O)[C@H]2O)C(=O)N[C@H](Cc2ccc(C(=N)N)cc2)C(=O)N2CCCCC2)c(C)c1C.Cl` [Compound 41, 2-N-(4-Methoxy-2,3,6-trimethyl-benzenesulfonyl)-4-N-(β-D-galactopyranosyl)-L-asparaginyl-4-amidino-D-phenylalanine-piperidide hydrochloride], in data set [1], affinity was put at a Ki of 375 nM and the “Specificity Try/Thr” value came out at 9375. Further, in the data set with CD rats, the “LD50 (rat)” value was found to be 50 mg/kg. The same compound yielded a Ki on human thrombin of 0.04 nM.
For `COc1cc(C)c(S(=O)(=O)N[C@@H](CO[C@@H]2OC[C@@H](O)[C@@H](O)[C@H]2O)C(=O)N[C@H](Cc2ccc(C(=N)N)cc2)C(=O)N2CCCCC2)c(C)c1C.I` [Compound 42, 2-N-(4-Methoxy-2,3,6-trimethyl-benzenesulfonyl)-3-O-(β-D-ribo-pyranosyl)-L-seryl-4-amidino-D-phenylalanine-piperidide hydroiodide] the same measures were 650 nM, 500, 60 mg/kg and 1.3 nM.
For `COc1cc(C)c(S(=O)(=O)N[C@@H](CC(=O)O)C(=O)N[C@H](Cc2ccc(C(=N)N)cc2)C(=O)N2CCCCC2)c(C)c1C.Cl` [Compound 43, 2-N-(4-Methoxy-2,3,6-trimethyl-benzenesulfonyl)-L-Asp-4-amidino-D-phenylalanine-piperidide×HCl] the same measures were 187 nM, 125, 62 mg/kg and 1.5 nM.
On to `COc1cc(C)c(S(=O)(=O)N[C@@H](CC(=O)N[C@H]2O[C@@H](C)[C@@H](O)[C@@H](O)[C@@H]2O)C(=O)N[C@H](Cc2ccc(C(=N)N)cc2)C(=O)N2CCCCC2)c(C)c1C.Cl` [Compound 49, 2-N-(4-Methoxy-2,3,6-trimethyl-benzenesulfonyl)-4-N-(β-L-fucopyranosyl)-L-aspaginyl-4-amidino-D-phenylalanine-piperidide hydrochloride], for which, in data set [1], affinity was put at a Ki of 531 nM and the “Specificity Try/Thr” value is reported as 5310. For the same compound, the “LD50 (rat)” value in the data set with CD rats was found to be 52 mg/kg. At human thrombin, this compound had an inhibitory constant (Ki) of 0.1 nM.
For `COc1cc(C)c(S(=O)(=O)N[C@@H](CC(=O)N[C@@H]2O[C@H](CO)[C@H](O)[C@H](O)[C@H]2NC(C)=O)C(=O)N[C@H](Cc2ccc(C(=N)N)cc2)C(=O)N2CCCCC2)c(C)c1C.Cl` [Compound 50, 2-N-(4-Methoxy-2,3,6-trimethyl-benzenesulfonyl)-4-N-(2-acetamido-2-deoxy-β-D-galactopyranosyl)-L-asparaginyl-4-amidino-D-phenylalanine-piperididehydrochloride], in data set [1], the Ki was found to be 608 nM and the “Specificity Try/Thr” value turned out to be 289. Further, the “LD50 (rat)” value in the data set on CD rats is on record as 64 mg/kg. For the same compound, on human thrombin, the affinity corresponds to a Ki of 2.1 nM.
For the compound `N=C(N)c1ccc(CC(NC(=O)CNS(=O)(=O)c2ccc3ccccc3c2)C(=O)N2CCCCC2)cc1` (centres unmarked) [NAPAP, 2-N-(2-naphthalenesulfonylglycyl)-4-amidino-phenylalaninc piperidide], in the data set with thrombin, the specificity for thrombin result was “too low”.

(Values after patent US5556941A, “Glycopeptide derivatives, a process for their preparation and pharmaceutical agents containing these compounds” (Behringwerke Aktiengesellschaft, priority 1992, dated 1996).)
